The half-life is the time needed for the level to fall by half in the phase considered. A lower half-life goes with fast loss.

In ChEMBL document CHEMBL1148227, “Biosynthesis of vitamin B6: direct identification of the product of the PdxA-catalyzed oxidation of 4-hydroxy-l-threonine-4-phosphate using electrospray ionization mass spectrometry” (Bioorg Med Chem Lett, 2004) one finds half-life data, which are given here for two compounds.

Type in all cases: ADME
Settings in all cases: buffer

A short description of data set [1]: Half life at pH 8.1.
A short description of data set [2]: Half life at pH 5.9.
The nature of data set [3]: Half life at pH 7.8.

The structures appear in SMILES notation.

As for `CC(=O)C(N)C(=O)O` (stereo not drawn), the half-life in data set [1] is 15.2 min; in data set [2], 8.57 min. For the compound `NC(C(=O)O)C(=O)COP(=O)(O)O` (stereo not drawn), the half-life in data set [3] worked out at 10 min.
